Measurements: PubChem BioAssay (NCI)
“And” between values parts separate entries of the source, which are not always exact repeats. Identical values can stand only once.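 The compound was tested at five concentrations on cells cultured in 96-well plates, with a 48-hour exposure period. GI50 = concentration required for 50% inhibition of growth. TGI is the concentration that stops growth completely.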

Assays:
Test in all cases: growth of human tumour cells (NCI), 48 h
LOX IMVI melanoma = tested on: LOX IMVI melanoma
MDA-MB-435 = tested on: MDA-MB-435
U251 CNS = tested on: U251 CNS
HOP-62 NSCLC = tested on: HOP-62 NSCLC
SK-MEL-28 melanoma = tested on: SK-MEL-28 melanoma
CAKI-1 renal = tested on: CAKI-1 renal
COLO 205 colon = tested on: COLO 205 colon
OVCAR-3 ovarian = tested on: OVCAR-3 ovarian
SW-620 colon = tested on: SW-620 colon
HS 578T breast = tested on: HS 578T breast

SMILES	GI50 (LOX IMVI melanoma)	TGI (LOX IMVI melanoma)	GI50 (MDA-MB-435) [µM]	TGI (MDA-MB-435)	GI50 (U251 CNS) [µM]	TGI (U251 CNS)	GI50 (HOP-62 NSCLC)	TGI (HOP-62 NSCLC)	GI50 (SK-MEL-28 melanoma) [µM]	TGI (SK-MEL-28 melanoma)	GI50 (CAKI-1 renal) [µM]	TGI (CAKI-1 renal)	TGI (COLO 205 colon)	GI50 (OVCAR-3 ovarian)	TGI (OVCAR-3 ovarian)	GI50 (SW-620 colon)	TGI (SW-620 colon)	GI50 (HS 578T breast) [µM]	TGI (HS 578T breast)	GI50 (COLO 205 colon)
CNCCNc1c2c(c(NCCNC)c3c(CN(C)C)c[nH]c13)C(=O)c1ccccc1C2=O	2.35 µM	6.04 µM	2.5	10.7 µM	2.95	13.8 µM	2.9 µM	10.1 µM	9.59	26.4 µM	4.71	16.8 µM	> 34.5 µM	1.03 µM	6.8 µM	1.31 µM	11 µM	1.7	7.92 µM	
CC(=O)OC1Oc2ccccc2-c2oc(=O)c(-c3cc(=O)oc4cc(O)ccc34)cc21 (stereo unspecified)	17.8 µM	37.5 µM	18.4	54.4 µM	24	65.3 µM	20.8 µM	55.2 µM	34.5	> 100 µM	21.7	83.7 µM	51.2 µM	13.8 µM	41.4 µM	25.8 µM	74.4 µM	17.9	52 µM	18.2 µM
Cc1c2cccnc2c(C)c2c1c1cc(CO)ccc1n2C	1.5 µM	4.82 µM	3.06	13.7 µM	1.93	11 µM	1.31 µM	6.52 µM	3.01	10.9 µM	2.06	10.5 µM	6.11 µM	2.38 µM		1.25 µM	14.5 µM	3.38	34.5 µM	1.51 µM
Cc1ccc(C(SCC(N)C(=O)O)(c2ccccc2)c2ccc(C)cc2)cc1 (stereo unspecified)	0.602 µM	21.5 µM	0.0323	0.14 µM	0.101	15.5 µM	2 µM	18.9 µM	2.09	23.7 µM	0.402	20.1 µM	0.732 µM	0.192 µM	2.64 µM	0.153 µM	14.8 µM	0.0485	2.17 µM	0.241 µM
C/C1=C\CC[C@@]2(C)O[C@@H]2[C@H]2OC(=O)[C@@H](CN(C)C)[C@@H]2CC1	10.2 µM	29.9 µM	7.68	25.3 µM	14.9	34.4 µM	20.9 µM	40.4 µM	21.9	51.6 µM	13.2	31.3 µM	98.4 µM	12.1 µM	32.4 µM	3.76 µM	> 100 µM	22.7	> 100 µM	33.8 µM
COc1cc(Nc2cn[nH]c2-c2ccc(Cl)cc2)cc(OC)c1OC	5.62 µM	20.7 µM	1.26	4.24 µM	4.91	33.3 µM	6.91 µM	44.5 µM	6.45	56.7 µM	2.34	26.2 µM	21.9 µM	3.44 µM	14.4 µM	3.87 µM	23.7 µM	3.88	63.1 µM	4.39 µM
COc1ncnc(C2CC2)c1-c1ncc2cnn(Cc3ccc(-c4nc(C(F)(F)F)cn4C(C)C)cc3)c2n1	14.8 µM	31.7 µM	19.8	51.6 µM	25.7	> 100 µM	25.6 µM	> 100 µM	19.1	71.3 µM	14.2	> 100 µM	89.4 µM	22.2 µM	76.5 µM	28 µM	> 100 µM	17.8	> 100 µM	23.5 µM
Cn1cc(C2=C(c3ccc4ccccc4c3)C(=O)NC2=O)c2ccccc21	> 25 µM	> 25 µM	0.885	> 13.6 µM	> 25	> 25 µM	> 25 µM	> 25 µM	> 25	> 25 µM	> 16.7	> 25 µM	> 25 µM	> 25 µM	> 25 µM	8.28 µM	> 25 µM	> 17.7	> 25 µM	20.8 µM
CNCCCn1cc(C2=C(c3cn(C)c4ccccc34)C(=O)NC2=O)c2ccccc21	3.93 µM	8.28 µM	3.31	6.9 µM	3.14	6.96 µM	5.59 µM	13.4 µM	3.85	7.8 µM	4.13	13.2 µM	5.52 µM	5.14 µM	13.8 µM	3.72 µM	8.13 µM	2.06	9.64 µM	1.95 µM
O=C(OCc1ccc2cccc(O)c2n1)N1CCN(C(=O)c2cc3cc(F)ccc3[nH]2)CC1	1.36 µM	2.75 µM	1.19	2.8 µM	1.41	2.74 µM	1.37 µM	3.16 µM	1.68	3.05 µM	0.354	1.66 µM	2.07 µM	0.46 µM	1.77 µM	0.42 µM	1.91 µM	1.42	5.72 µM	0.622 µM
O=Cc1cc2c(cc1-c1c(C=O)ccc3c1OCO3)OCO2		> 10 µM		> 10 µM		> 10 µM		> 10 µM		> 10 µM		> 10 µM	> 10 µM		> 10 µM		> 10 µM		> 10 µM	
O=c1n(CC2CO2)c(=O)n(CC2CO2)c(=O)n1CC1CO1 (stereo unspecified)	12.3 µM and 6.12 µM	47.5 µM and 102 µM and > 100 µM		63.8 µM and > 100 µM	5.47	32.4 µM and 67.2 µM and 32.2 µM	6.38 µM and 15.1 µM	38.8 µM and 96.1 µM and > 100 µM	22.7	139 µM and > 100 µM	0.81	52.1 µM and 64.9 µM	78.4 µM and 52.2 µM and 25.5 µM	20.6 µM and 13.1 µM	108 µM and 40.2 µM	26.3 µM and 13.2 µM	228 µM and > 100 µM	21.6	188 µM and > 100 µM	25 µM and 11.1 µM
COCCOc1cc(F)c2c(Nc3ccc(NC(=O)Cn4cc(C(C)C)nn4)cc3)ncnc2c1	> 100 µM	> 100 µM	> 100	> 100 µM	37.4	> 100 µM	22.2 µM	> 100 µM	> 100	> 100 µM	> 100	> 100 µM	> 100 µM	> 100 µM	> 100 µM	> 100 µM	> 100 µM	16.5	> 100 µM	> 100 µM
C[C@H]1c2cccc(O)c2C(O)=C2C(=O)[C@]3(O)C(O)=C(C(N)=O)C(=O)[C@@H](N(C)C)[C@@H]3[C@@H](O)[C@@H]21	2.75 µM	10 µM	3.01	12.6 µM	2.98	11.9 µM	2.76 µM	10.8 µM	4.14	16.4 µM	2.08	8.67 µM	3.63 µM	2.5 µM	6.85 µM	3.02 µM	14.6 µM	3.42	27 µM	1.88 µM
Cc1ccc(Cl)cc1Nc1nc(C(F)(F)F)ccc1C(=O)N1CCN(c2ccc(F)cc2)CC1	11.9 µM	24.6 µM	14.2	29.6 µM	12.5	25.5 µM	14.7 µM	29.8 µM	15.6	29.3 µM	1.53	14.2 µM	30.2 µM	10.7 µM	24 µM	12.2 µM	24.6 µM	4.31	22.3 µM	15.8 µM
COc1ccc(C(=O)c2cc(OC)c(C)c(OC)c2)cc1OC(=O)CCl	0.244 µM	19.6 µM	0.0265	0.0902 µM	0.415	> 45.3 µM	0.668 µM	> 100 µM	0.732	40.4 µM	0.591	77.7 µM	69.4 µM	0.336 µM	10.8 µM	0.211 µM	> 100 µM	0.314	> 100 µM	7.78 µM
COc1cc(C(=O)c2cc(C)c3[nH]c4ccc(Cl)cc4c3c2C)cc(OC)c1OC	0.0384 µM	5.52 µM	0.0249	0.0733 µM	0.0425	15 µM	0.0756 µM	19.5 µM	1.44	17 µM	0.0521	12.5 µM	2.36 µM	0.0329 µM	7.16 µM	0.0415 µM	24.8 µM	0.0364	10.6 µM	0.517 µM
Cc1nnc(S(=O)(=O)c2ccc(N=Nc3c(N)nc(N)nc3N)cc2)s1		> 100 µM		> 100 µM		> 100 µM		> 100 µM		> 100 µM		> 100 µM	> 100 µM		> 100 µM		> 100 µM		> 100 µM	
CC(C)c1ccc(Nc2ccc3c(OCCCN4CCN(C)CC4)cccc3n2)cc1	1.86 µM	3.54 µM	6.62	21.4 µM	3.28	10.3 µM	12 µM	26.4 µM	1.89	4.32 µM	12.6	28.8 µM	3.96 µM	14.4 µM	27.5 µM	8.9 µM	22.9 µM	16.9	40.3 µM	1.97 µM
Clc1coc2nc3ccccc3c(Nc3ccc4c(c3)OCO4)c12	2.01 µM	13.6 µM	0.62	1.46 µM	1.12	11.5 µM	0.781 µM	21.9 µM	3.49	> 71.4 µM	1.51	10.6 µM	30 µM	0.596 µM	2.46 µM	3.22 µM	12.1 µM	1.89	5.37 µM	2.05 µM
Cn1c(=O)c2c(nc(Nc3cc(=O)[nH]c(=O)[nH]3)n2Cc2ccccc2)n(C)c1=O	> 100 µM	> 100 µM	> 100	> 100 µM	> 100	> 100 µM	> 100 µM	> 100 µM	> 100	> 100 µM	50.1	> 100 µM	> 100 µM	> 100 µM	> 100 µM	> 100 µM	> 100 µM	> 100	> 100 µM	> 100 µM
O=S(=O)([O-])c1ccc2c(c1)-c1nc-2nc2[n-]c(nc3nc(nc4[n-]c(n1)c1ccc(S(=O)(=O)[O-])cc41)-c1cc(S(=O)(=O)[O-])ccc1-3)c1ccc(S(=O)(=O)[O-])cc21.[Cu+2].[Na+]	3.29 µM	> 100 µM	> 100	> 100 µM	40.3	> 100 µM	> 100 µM	> 100 µM	> 100	> 100 µM	> 100	> 100 µM	> 62 µM	> 28.3 µM	> 100 µM	10.8 µM	> 71 µM	> 100	> 100 µM	6.96 µM
C[As](C)SC1OC(CO)C(O)C1O (stereo unspecified)	0.445 µM	1.75 µM	0.154	0.746 µM	0.709	3.2 µM	3.58 µM	13.4 µM	0.522	5.45 µM	0.0487	0.402 µM	10.8 µM	0.0623 µM	0.203 µM	0.391 µM	1.61 µM	0.968	7.59 µM	0.505 µM
CC1OC2CC(=O)OC2C2=C1C(=O)c1c(O)cccc1C2=O (stereo unspecified)	0.0342 µM	0.129 µM	0.0493	0.214 µM	0.167	0.492 µM	0.182 µM	0.366 µM	0.0548	0.191 µM	0.0423	0.148 µM	0.0405 µM	0.0297 µM	0.0851 µM	0.0411 µM	0.154 µM	0.261		0.0177 µM
O=c1c2ccccc2[se]n1-c1cccnc1		56.8 µM		46.4 µM		76 µM		71 µM		81 µM		> 100 µM	45.1 µM		> 100 µM		83.3 µM		42.1 µM	
